Holding throughout (assay type): binding
What all share (parameters): KINOMEscan: ABL1(F317L)-phosphorylated / KINOMEscan: ABL1(H396P)-nonphosphorylated / KINOMEscan: ABL1(H396P)-phosphorylated / KINOMEscan: ABL1(M351T)-phosphorylated / KINOMEscan: ABL1(T315I)-phosphorylated / KINOMEscan: ABL1-nonphosphorylated / KINOMEscan: ABL1-phosphorylated / KINOMEscan: ACVR2A / KINOMEscan: ACVR2B / KINOMEscan: ADCK3 / KINOMEscan: ADCK4 / KINOMEscan: AKT1 / KINOMEscan: AKT3 / KINOMEscan: ALK / KINOMEscan: ARK5 / KINOMEscan: AURKA / KINOMEscan: AURKC / KINOMEscan: BIKE / KINOMEscan: BMPR1A / KINOMEscan: BMPR1B / KINOMEscan: BMX / KINOMEscan: BRK / KINOMEscan: BRSK1 / KINOMEscan: BRSK2 / KINOMEscan: CAMK1 / KINOMEscan: CAMK1D / KINOMEscan: CAMK1G / KINOMEscan: CAMK2A / KINOMEscan: CAMK2B / KINOMEscan: AAK1 / KINOMEscan: CAMK2D / KINOMEscan: CAMK2G / KINOMEscan: ABL1(F317I)-nonphosphorylated / KINOMEscan: ABL1(F317I)-phosphorylated / KINOMEscan: ABL1(F317L)-nonphosphorylated: unit: % Ctrl
Conditions in all cases: Compound Concentration 10 µM

Assay [1] deals with T1, panel of 442 kinases (Homo sapiens, UniProt O14936).
T1 construct: purchased KINOMEscan
T1 sequence (O14936 1-926): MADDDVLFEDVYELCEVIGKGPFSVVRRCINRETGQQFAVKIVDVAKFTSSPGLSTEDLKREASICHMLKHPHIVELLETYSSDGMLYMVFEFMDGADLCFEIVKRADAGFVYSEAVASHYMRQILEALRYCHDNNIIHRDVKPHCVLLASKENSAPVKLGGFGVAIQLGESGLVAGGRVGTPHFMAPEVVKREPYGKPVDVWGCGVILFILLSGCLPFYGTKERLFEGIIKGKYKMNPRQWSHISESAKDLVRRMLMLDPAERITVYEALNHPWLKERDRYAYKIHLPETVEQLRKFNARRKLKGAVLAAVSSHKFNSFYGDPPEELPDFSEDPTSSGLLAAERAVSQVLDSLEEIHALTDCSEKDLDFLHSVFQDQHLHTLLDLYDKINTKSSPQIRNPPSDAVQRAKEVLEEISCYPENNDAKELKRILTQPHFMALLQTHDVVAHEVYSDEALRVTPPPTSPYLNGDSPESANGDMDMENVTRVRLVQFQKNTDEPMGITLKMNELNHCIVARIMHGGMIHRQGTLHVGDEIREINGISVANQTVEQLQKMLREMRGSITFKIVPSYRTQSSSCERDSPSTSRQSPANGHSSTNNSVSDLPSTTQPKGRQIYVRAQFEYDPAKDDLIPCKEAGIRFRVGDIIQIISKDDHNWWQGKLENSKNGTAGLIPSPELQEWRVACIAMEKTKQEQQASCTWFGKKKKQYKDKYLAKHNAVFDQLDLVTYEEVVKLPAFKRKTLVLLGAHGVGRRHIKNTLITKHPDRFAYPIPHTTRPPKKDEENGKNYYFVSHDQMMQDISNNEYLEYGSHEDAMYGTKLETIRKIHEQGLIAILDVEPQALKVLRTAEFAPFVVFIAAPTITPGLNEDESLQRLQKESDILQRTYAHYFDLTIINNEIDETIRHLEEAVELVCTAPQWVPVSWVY
An excerpt:
(§1) We assessed the selectivity of members of this scaffold using the KINOMEscan methodology across a near comprehensive panel of 442 kinases [[18,27]].

The target in assay [2] is T2, panel of 442 kinases (Homo sapiens, UniProt Q8NI60).
T2 construct: purchased KINOMEscan
T2 sequence (Q8NI60 163-647): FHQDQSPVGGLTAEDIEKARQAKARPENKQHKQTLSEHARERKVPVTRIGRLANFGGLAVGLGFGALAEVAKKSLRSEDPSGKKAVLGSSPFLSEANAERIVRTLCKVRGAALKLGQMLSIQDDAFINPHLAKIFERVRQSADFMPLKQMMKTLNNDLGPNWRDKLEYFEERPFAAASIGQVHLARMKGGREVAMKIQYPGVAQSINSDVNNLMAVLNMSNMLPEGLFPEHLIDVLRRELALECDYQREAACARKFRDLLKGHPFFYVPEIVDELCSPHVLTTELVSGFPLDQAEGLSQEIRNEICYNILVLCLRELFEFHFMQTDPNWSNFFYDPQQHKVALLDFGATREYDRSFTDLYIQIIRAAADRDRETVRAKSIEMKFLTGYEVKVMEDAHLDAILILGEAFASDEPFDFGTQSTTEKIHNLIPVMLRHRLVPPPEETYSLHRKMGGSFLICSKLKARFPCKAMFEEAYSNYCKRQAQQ
Description: as §1

Assay [3] deals with T3, panel of 442 kinases (Homo sapiens, UniProt Q9P0L2).
T3 construct: purchased KINOMEscan
T3 sequence (Q9P0L2 whole entry): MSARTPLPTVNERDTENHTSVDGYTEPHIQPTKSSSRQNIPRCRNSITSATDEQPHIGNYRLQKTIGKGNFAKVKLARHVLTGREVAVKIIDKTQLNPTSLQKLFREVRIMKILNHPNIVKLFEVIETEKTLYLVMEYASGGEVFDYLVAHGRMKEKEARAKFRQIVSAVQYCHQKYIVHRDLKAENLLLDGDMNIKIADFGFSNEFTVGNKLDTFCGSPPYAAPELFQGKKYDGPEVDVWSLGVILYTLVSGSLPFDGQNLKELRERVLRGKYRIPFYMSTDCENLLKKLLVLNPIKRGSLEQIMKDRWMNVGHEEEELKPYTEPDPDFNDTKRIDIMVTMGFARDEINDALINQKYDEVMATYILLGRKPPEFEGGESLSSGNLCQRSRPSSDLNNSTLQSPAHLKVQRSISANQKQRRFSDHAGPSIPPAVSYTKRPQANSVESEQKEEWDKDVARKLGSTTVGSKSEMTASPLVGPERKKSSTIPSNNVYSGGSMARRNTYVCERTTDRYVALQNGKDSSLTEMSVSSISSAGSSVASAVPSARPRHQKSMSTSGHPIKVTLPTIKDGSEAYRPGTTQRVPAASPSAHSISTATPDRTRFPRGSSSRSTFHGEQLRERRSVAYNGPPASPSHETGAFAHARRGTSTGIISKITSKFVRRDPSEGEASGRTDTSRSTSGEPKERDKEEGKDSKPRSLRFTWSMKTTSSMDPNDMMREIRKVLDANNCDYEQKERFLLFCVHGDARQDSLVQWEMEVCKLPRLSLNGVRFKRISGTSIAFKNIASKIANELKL
Description: as §1

As for `COc1cc(C(=O)N2CCC(N3CCN(C)CC3)CC2)ccc1Nc1ncc2c(n1)N(C1CCCC1)c1ccccc1C(=O)N2C` [Compound 25, 11-cyclopentyl-2-((2-methoxy-4-(4-(4-methylpiperazin-1-yl)piperidine-1-carbonyl)phenyl)amino)-5-methyl-5H-benzo[e]pyrimido[5,4-b][1,4]diazepin-6(11H)-one], at panel of 442 kinases [1], the “KINOMEscan: CASK” value was found to be 100. The “KINOMEscan: ADCK3” value at panel of 442 kinases [2] amounted to 61. For the same compound, the “KINOMEscan: MARK1” value on panel of 442 kinases [3] was found to be 99.

As to `COc1cc(C(=O)N2CCC(N3CCN(C)CC3)CC2)ccc1Nc1ncc2c(n1)N1CCc3cccc(c31)C(=O)N2C` [Compound 24], the “KINOMEscan: CASK” value at panel of 442 kinases [1] is 100. The “KINOMEscan: ADCK3” value on panel of 442 kinases [2] was determined as 56. The “KINOMEscan: MARK1” value at panel of 442 kinases [3] is 83.

Consider `COc1cc(C(=O)N2CCC(N3CCN(C)CC3)CC2)ccc1Nc1ncc2c(n1)N(C)c1ccccc1C(=O)N2C` [15 (LRRK2-IN-1)], for which, at panel of 442 kinases [1], the “KINOMEscan: CASK” value is 85. In addition, the “KINOMEscan: ADCK3” value on panel of 442 kinases [2] amounted to 71. The “KINOMEscan: MARK1” value at panel of 442 kinases [3] was 87.

Turning to `CCOc1cc(C(=O)N2CCC(N3CCN(C)CC3)CC2)ccc1Nc1ncc2c(n1)N(C1CCCC1)c1ccccc1C(=O)N2C` [Compound 26], on panel of 442 kinases [1], the “KINOMEscan: CASK” value turned out to be 98. For the same compound, the “KINOMEscan: ADCK3” value on panel of 442 kinases [2] was 59. The “KINOMEscan: MARK1” value on panel of 442 kinases [3] stood at 100.

These data come from paper PMC3914206.
